Test results from publication PMC10177380 (Cancers, 2023).
Read-outs that look alike come from different tables or passages of the source. Marks after values point to notes of the source that are not given here.

Experiments:
[1] = system: ADDP ovarian variant (cisplatin-resistant A2780 clone); set-up: method as in PMID 36296713, PMID 36142383; conditions: cited from earlier work
H460 lung = system: H460 lung; set-up: method as in PMID 36296713, PMID 36142383; conditions: cited from earlier work
U87 glioblastoma = system: U87 glioblastoma; set-up: method as in PMID 36296713, PMID 36142383; conditions: cited from earlier work
A431 skin = system: A431 skin; set-up: method as in PMID 36296713, PMID 36142383; conditions: cited from earlier work
A2780 ovarian = system: A2780 ovarian; set-up: method as in PMID 36296713, PMID 36142383; conditions: cited from earlier work
SJG2 glioblastoma = system: SJG2 glioblastoma; set-up: method as in PMID 36296713, PMID 36142383; conditions: cited from earlier work
HT29 colon = system: HT29 colon; set-up: method as in PMID 36296713, PMID 36142383; conditions: cited from earlier work
MCF7 breast = system: MCF7 breast; set-up: method as in PMID 36296713, PMID 36142383; conditions: cited from earlier work
BE2C neuroblastoma = system: BE2C neuroblastoma; set-up: method as in PMID 36296713, PMID 36142383; conditions: cited from earlier work
Du145 prostate = system: Du145 prostate; set-up: method as in PMID 36296713, PMID 36142383; conditions: cited from earlier work
MIA pancreas = system: MIA pancreas; set-up: method as in PMID 36296713, PMID 36142383; conditions: cited from earlier work
multiple cell lines = system: multiple cell lines; set-up: method as in PMID 36296713, PMID 36142383; conditions: mean over all cell lines tested; cited from earlier work
HT29 colon cells [2] = assay: Mitochondrial membrane potential, TMRE-MtMP assay; type: cell-based, human; conditions: treatment at GI50 concentration (FCCP positive control 20 μM)
Source text: To study the MtMP changes in treated cells, a TMRE-MtMP Assay Kit (Abcam, Cambridge, MA, USA) was used (see Supplementary Materials).
TMRE was used to stain HT29 colon cells, and treatment with the complexes and ligands was completed at each specific GI50 concentration. The MtMP changes detected are expressed as RFU. Additionally, lower RFU values correspond to a decline in mitochondrial activity. […]
dimethylthiazol-2-yl]-2,5-diphenyltetrazolium bromide) assay and absorbance was read at 540 nm. An eight-point dose response curve was produced from which the GI50 value was calculated, representing the drug concentration at which cell growth was inhibited by 50% based on the difference between the optical density values on day 0 and those at the end of drug exposure. […]
5. Mitochondrial Membrane Potential (MtMP)
In 96-well plates, 25,000 cells/mL of HT29 colon cells in DMEM were seeded. Cells were treated with a GI50 drug concentration for each complex. […]
washed with PBS and stained with 1 μM tetramethylrhodamine, ethyl ester (TMRE) and incubated for 30 min. TMRE was then removed, and cells were then re-washed with PBS (0.2% BSA), after which phenol red free media was added. The plates were directly scanned to measure fluorescence (expressed as RFU), using the Glo-Max®-Multimode […]
microplate reader (Promega Corporation, Alexandra, VIC, Australia) at an […]
For the positive control, 20 μM carbonyl cyanide 4-(trifluoromethoxy) phenylhydrazone (FCCP)) was added to the cells and incubated for 10 min. The cells were washed with PBS (0.2% BSA) and stained with TMRE (1 μM) for 30 min; this was removed and phenol red free media was added, and the final solution was scanned as mentioned above. […]

[3] = system: non-tumour derived MCF10A breast line; set-up: method as in PMID 36296713, PMID 36142383; conditions: cited from earlier work
MCF10A / Du145 = system: MCF10A / Du145; set-up: method as in PMID 36296713, PMID 36142383; conditions: GI50 in MCF10A/GI50 in Du145, from data of previous studies; cited from earlier work
HT29 colon cells [4] = system: HT29 colon cells; set-up: method as in PMID 36296713, PMID 36142383; conditions: cited from earlier work
[5] = set-up: method as in PMID 24951889; conditions: water, from the literature; cited from earlier work
HT29 colon cells [6] = assay: ROS production, DCFDA/H2DCFDA cellular ROS assay; type: cell-based, human; conditions: treatment at GI50 concentration (TBHP positive control 20 μM)
Procedure: To determine the presence of ROS in treated cells, a DCFDA/H2DCFDA-cellular ROS Assay Kit (Abcam, Cambridge, MA, USA) was utilised, as previously reported. The ROS potential of platinum(II) precursors and platinum(IV) scaffolds, which were determined using the same method, were also presented in this study for comparison.
Additionally, the ROS potential of the platinum(II) precursors and platinum(IV) scaffolds was determined previously and was presented here to allow for comparison (Table 10 and Figure 13). […] Treatment with the complexes and ligands was completed at each specific GI50 concentration. […]
dimethylthiazol-2-yl]-2,5-diphenyltetrazolium bromide) assay and absorbance was read at 540 nm. An eight-point dose response curve was produced from which the GI50 value was calculated, representing the drug concentration at which cell growth was inhibited by 50% based on the difference between the optical density values on day 0 and those at the end of drug exposure.
4. Reactive Oxygen Species (ROS) Potential
A total of 25,000 cells/mL of HT29 cells in DMEM were seeded in 96-well plates. Cells were washed with 1X kit buffer, and then stained with 25 μM 2’,7’-dichlorofluorescein diacetate (DCFH-DA) and incubated for 45 min. DCFH-DA was then removed, and cells were then re-washed with 1X kit buffer, after which phenol red free media was added.
Cells were then treated with a GI50 drug concentration for each complex. The plates were directly scanned to measure fluorescence (relative fluorescence units (RFU)) at different time points using the Glo-Max®-Multimode microplate reader (Promega Corporation, Alexandra, VIC, Australia) at an excitation/emission of 485/535 nm. […]

SMILES	GI50 [1] [nM]	GI50 (H460 lung) [nM]	GI50 (U87 glioblastoma) [nM]	GI50 (A431 skin) [nM]	GI50 (A2780 ovarian) [nM]	GI50 (SJG2 glioblastoma) [nM]	GI50 (HT29 colon) [nM]	GI50 (MCF7 breast) [nM]	GI50 (BE2C neuroblastoma) [nM]	GI50 (Du145 prostate) [nM]	GI50 (MIA pancreas) [nM]	GI50 (multiple cell lines) [nM]	MtMP Changes (HT29 colon cells [2]; HT29, 24 h) [RFU]	MtMP Changes (HT29 colon cells [2]; HT29, 48 h) [RFU]	MtMP Changes (HT29 colon cells [2]; HT29, 72 h) [RFU]	GI50 [3] [nM]	Selectivity Cytotoxicity Index (SCI) (MCF10A / Du145)	ROS Production (HT29 colon cells [4]; HT29, 24 h) [RFU]	ROS Production (HT29 colon cells [4]; HT29, 48 h) [RFU]	ROS Production (HT29 colon cells [4]; HT29, 72 h) [RFU]	other results
O=C1[O][Pt]2([NH][C@@H]3CCCC[C@H]3[NH]2)[O]C1=O (relative stereo) [Oxaliplatin, trans-L-(1R,2R-diaminocyclohexane) oxalatoplatinum(II)]	800 ± 100	1600 ± 100	1800 ± 200	4100 ± 500	160 ± 100	3000 ± 1200	900 ± 200	500 ± 100	900 ± 200	2900 ± 400	900 ± 200	1460 ± 320	–	–	–	–	–	–	–	–	–
Cc1cc2c3c4c1=CC=C[N]4[Pt+2]([OH])([OH])[N]3C=CC=2.N[C@H]1CCCC[C@@H]1N [5MESS(IV)(OH)2]	130 ± 22	60 ± 5	900 ± 58	360 ± 58	240 ± 9	640 ± 70	60 ± 6	1200 ± 390	1400 ± 300	41 ± 5	160 ± 29	443 ± 81	301 ± 14	214 ± 9	198 ± 4	130 ± 19	3.17	234 ± 1	323 ± 9	335 ± 2	–
Cc1c(C)c2c3c4c1=CC=C[N]4[Pt+2]([OH])([OH])[N]3C=CC=2.N[C@H]1CCCC[C@@H]1N [56MESS(IV)(OH)2]	170 ± 120	190 ± 150	190 ± 23	120 ± 22	59 ± 7	210 ± 45	36 ± 7	480 ± 140	240 ± 22	15 ± 2.6	43 ± 2.5	151 ± 50	245 ± 16	177 ± 11	125 ± 12	61 ± 7	4.07	259 ± 3	356 ± 11	438 ± 7	–
N.N.O=C([O-])C1(C(=O)[O-])CCC1.[Pt+2] [Carboplatin, cis-diammine(1,1-cyclobutanedicarboxylato) platinum(II)]	> 50000	14000	> 50000	24000	9200 ± 2900	5700 ± 200	> 50000	> 50000	19000	15000	> 50000	32200	–	–	–	> 50000	3.33	–	–	–	Solubility [5]: 11.7 * mg/mL
N#CC(C#N)=NNc1ccc(OC(F)(F)F)cc1 [FCCP, carbonyl cyanide 4-(trifluoromethoxy) phenylhydrazone]	–	–	–	–	–	–	–	–	–	–	–	–	194 ± 10	143 ± 5	80 ± 5	–	–	–	–	–	–
N[C@H]1CCCC[C@@H]1N.[OH][Pt+2]1([OH])[N]2C=CC=c3ccc4c(c32)[N]1C=CC=4 [PHENSS(IV)(OH)2]	1300 ± 350	1700 ± 200	4900 ± 610	4300 ± 530	800 ± 84	1700 ± 350	710 ± 300	16000	3000 ± 530	310 ± 92	3400 ± 2200	3320 ± 880	321 ± 17	241 ± 10	216 ± 8	1700 ± 200	5.48	144 ± 5	273 ± 4	303 ± 1	–
CC(C)(C)OO [TBHP, tert-butyl hydroperoxide]	–	–	–	–	–	–	–	–	–	–	–	–	–	–	–	–	–	–	–	–	ROS Production (HT29 colon cells [6]; HT29, 24 h): 658 ± 28 RFU; ROS Production (HT29 colon cells [6]; HT29, 48 h): 504 ± 15 RFU; ROS Production (HT29 colon cells [6]; HT29, 72 h): 497 ± 10 RFU
